Read-outs that look alike come from different tables or passages of the source.
Columns and labels:
[1] = target: T1, P-glycoprotein (P-gp) function at the blood-brain barrier (BBB) (Rattus norvegicus, UniProt Q6PSM0); assay: [^11C]metoclopramide brain PET imaging with kinetic modelling (Logan plot) in rats; type: in vivo; details: oral pretreatment of healthy Sprague Dawley rats (CBZ 45 mg/kg twice a day for 7 days; RIT 20 mg/kg 3 h before PET)
T1 construct: Kinetic modeling was performed to estimate the impact of these drugs on P-gp function at the BBB; from tissue; host or cells: blood-brain barrier (brain) of living Sprague Dawley rats, in vivo PET
T1 sequence (Q6PSM0 1-1272): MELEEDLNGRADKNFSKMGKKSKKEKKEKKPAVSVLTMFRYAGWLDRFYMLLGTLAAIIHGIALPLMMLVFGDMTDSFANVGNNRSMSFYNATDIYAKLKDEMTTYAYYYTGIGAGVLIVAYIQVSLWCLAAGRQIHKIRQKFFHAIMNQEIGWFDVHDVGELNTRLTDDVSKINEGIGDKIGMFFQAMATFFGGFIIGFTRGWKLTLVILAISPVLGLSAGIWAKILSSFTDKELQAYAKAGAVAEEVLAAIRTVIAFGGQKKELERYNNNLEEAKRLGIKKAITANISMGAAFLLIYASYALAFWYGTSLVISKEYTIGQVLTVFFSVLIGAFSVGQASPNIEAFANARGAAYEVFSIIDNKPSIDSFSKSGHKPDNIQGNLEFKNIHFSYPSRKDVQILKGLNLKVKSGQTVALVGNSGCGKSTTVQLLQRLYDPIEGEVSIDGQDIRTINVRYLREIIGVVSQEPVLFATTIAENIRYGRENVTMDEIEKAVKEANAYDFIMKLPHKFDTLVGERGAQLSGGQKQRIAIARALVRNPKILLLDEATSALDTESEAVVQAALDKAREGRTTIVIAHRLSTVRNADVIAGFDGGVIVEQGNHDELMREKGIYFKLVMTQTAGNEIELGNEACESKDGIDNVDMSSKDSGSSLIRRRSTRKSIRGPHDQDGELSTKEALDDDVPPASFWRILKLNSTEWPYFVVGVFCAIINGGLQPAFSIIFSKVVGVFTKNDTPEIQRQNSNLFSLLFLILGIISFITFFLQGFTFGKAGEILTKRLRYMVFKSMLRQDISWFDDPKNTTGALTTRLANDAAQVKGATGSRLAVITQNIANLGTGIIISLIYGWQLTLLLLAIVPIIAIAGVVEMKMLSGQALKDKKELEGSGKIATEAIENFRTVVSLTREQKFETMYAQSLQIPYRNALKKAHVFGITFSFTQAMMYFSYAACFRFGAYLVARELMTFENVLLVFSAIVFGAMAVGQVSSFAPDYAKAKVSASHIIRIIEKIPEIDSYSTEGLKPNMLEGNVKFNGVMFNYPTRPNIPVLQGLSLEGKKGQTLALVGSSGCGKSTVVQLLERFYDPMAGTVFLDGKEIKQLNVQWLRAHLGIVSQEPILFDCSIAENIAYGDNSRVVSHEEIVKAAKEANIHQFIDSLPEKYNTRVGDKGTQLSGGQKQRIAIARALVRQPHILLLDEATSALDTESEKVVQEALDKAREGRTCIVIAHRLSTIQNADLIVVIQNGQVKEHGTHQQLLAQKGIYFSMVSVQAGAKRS
Protocol: In animals of the CBZ group (n = 4), CBZ suspension was administered by oral gavage at a dose of 45 mg/kg, twice a day (8 A.M and 5 P.M) for 7 days before the PET imaging. Each animal received a total of 14 doses of CBZ before the PET experiment.
A RIT suspension (10 mg/mL) was freshly prepared prior to oral administration by adding 100 mg of RIT powder to 9.4 mL of water for injection. Animals of the RIT group (n = 4) received a single dose of 20 mg/kg of RIT 3 hours before the PET experiment.
PET acquisitions were performed in Baseline, CBZ and RIT pretreated animals (n = 4 per condition) using an Inveon microPET scanner (Siemens, Knoxville, TN, USA). Anesthesia was induced and thereafter maintained using 3.5% and 1.5–2.5% isoflurane in O2, respectively.
Images were reconstructed with the Fourier rebinning algorithm and the 3-dimensional ordered-subset expectation-maximization algorithm, including normalization, attenuation, scatter, and random corrections. […] Radioactivity was corrected for ^11C decay and expressed as standardized uptake value (SUV, unitless) after correction for injected dose and animal weight. […]
Kinetic modeling was also performed using PMOD software. […] Each individual IDIF was corrected by a group-specific, average whole-blood/plasma radioactivity ratio which was obtained from the arterial blood samples collected in the separate groups of animals (see above).

[2] = test system: P-gp; details: cited from earlier work
[3] = design: method as in PMID 30630940; details: humans, at 30 min, microdose; cited from earlier work
[4] = rodents, at 30 min, microdose; cited from earlier work

Effect on P-gp function at the BBB (from [^11C]metoclopramide PET) [1] | Compound | P-gp inhibition in vitro [2] | Fraction of parent [^11C]metoclopramide [3] | Fraction of parent [^11C]metoclopramide [4]
does not substantially induce or inhibit | NC(=O)N1c2ccccc2C=Cc2ccccc21 [CBZ, carbamazepine] |  |  | 
apparently behaving as an inhibitor | CC(C)c1nc(CN(C)C(=O)N[C@H](C(=O)N[C@@H](Cc2ccccc2)C[C@H](O)[C@H](Cc2ccccc2)NC(=O)OCc2cncs2)C(C)C)cs1 [RIT, ritonavir] | potent P-gp inhibitor |  | 
 | CCN(CC)CCNC(=O)c1cc(Cl)c(N)cc1O[11CH3] [[^11C]metoclopramide] |  | ~ 60% | ~ 10%

From PMC9785688 (Pharmaceutics, 2022)
